In patent US20240125768A1, “METHODS FOR MODULATING A SRC-1 CONDENSATE” (ETERN BIOPHARMA (SHANGHAI) CO., LTD., priority 2021, published 2024):
“Also recorded” adds a separate entry of the source.

Legend:
YAP [1] = experiment: Western blotting / YAP phostag immunoblotting in SF268 cells; type: cell-based, human; conditions: 20 μM
Experimental: FIG. 7F illustrates SF268 cells were treated with 20 μM elvitegravir (EVG) or […] (PC) for the indicated times and subjected to western blotting analysis.
FIG. 7G illustrates SF268 cells treated with EVG or PC (fedratinib—an inhibitor of the non-receptor tyrosine kinase JAK2 which affects YAP nuclear translocation and phosphorylation) were examined by YAP phostag immunoblotting.

SRC-1 = experiment: Biotin-EVG competition pulldown and thermal shift assays; type: binding; conditions: Flag-SRC-1, biotin-EVG, increasing concentrations of EVG
Experimental: FIG. 7T illustrates the lysates from SF268 cells overexpressing Flag-SRC-1 were incubated with 20 μM biotin or biotin-EVG for streptavidin-beads pull-down assays.
FIG. 7U illustrates purified Flag-SRC1 protein was incubated with EVG-Biotin in the presence of increasing concentrations of EVG and further subjected to streptavidin-beads pull-down assays.
1 μg of purified recombinant protein Flag-SRC-1 was incubated with […] biotin-EVG/DMSO in the presence of increasing concentrations of Elvitegravir (20, 40, 100, 200 uM) for 30 min (RT) and was further incubated with streptavidin-agarose (20359, Thermo Fisher Scientific) for 20 min (RT). Washing beads with PBS (3×1.5 min). The precipitates were analyzed by western blot with anti-flag antibody.
Methods: Cells (SF268 cells and HEK293FT cells were transfected with expression vector of Flag-SRC-1) were harvested and lysed in lysis buffer (20 mM TrisHCl 7.5, 150 mM NaCl, 0.5% NP40, 5% glycerin, 1% proteinase Cocktail), and then incubated with 20 µM compound with biotin tag or DMSO for 40 min at room temperature. Then incubated with 100 μL streptavidin-agarose (20359, Thermo Fisher Scientific) for 30 min at RT. The beads were washed 4 times with lysis buffer ([…] 1.5 min). And the precipitates were analyzed by western blot with anti-flag antibody. […]

YAP [2] = experiment: Anti-YAP immunofluorescence staining in A549 cells (YAP nuclear translocation); type: cell-based; conditions: anti-YAP antibody and DAPI
From the text: FIG. 7H illustrates A549 cells treated with DMSO, EVG or PC(Positive compound) were stained with anti-YAP antibody and DAPI. […] Scale bar represents 40 μm.

lung cancer cell lines = experiment: Cell proliferation of lung cancer cell lines; type: cell-based
Experimental: FIG. 7V illustrates cell proliferation (lung cancer cells and normal cells) affected by the treatment with elvitegravir. Error bars show mean±s.e.m. (n=3).
After 6 days [or other time period as indicated] culture, cell viability was measured using CellTiter-Glo® Luminescent Cell Viability Assay (Promega, G7572) and DMSO group was used as normalization to calculate half maximal inhibitory concentration (IC50) using Graphpad Prism software.

SRC-1 condensates = biological target: T1, SRC-1 condensates (Homo sapiens, UniProt Q15788); experiment: Live cell imaging of SRC-1 condensates; type: cell-based
T1 construct: expressed in transfected cells; host or cells: SF268
T1 sequence (Q15788 whole entry): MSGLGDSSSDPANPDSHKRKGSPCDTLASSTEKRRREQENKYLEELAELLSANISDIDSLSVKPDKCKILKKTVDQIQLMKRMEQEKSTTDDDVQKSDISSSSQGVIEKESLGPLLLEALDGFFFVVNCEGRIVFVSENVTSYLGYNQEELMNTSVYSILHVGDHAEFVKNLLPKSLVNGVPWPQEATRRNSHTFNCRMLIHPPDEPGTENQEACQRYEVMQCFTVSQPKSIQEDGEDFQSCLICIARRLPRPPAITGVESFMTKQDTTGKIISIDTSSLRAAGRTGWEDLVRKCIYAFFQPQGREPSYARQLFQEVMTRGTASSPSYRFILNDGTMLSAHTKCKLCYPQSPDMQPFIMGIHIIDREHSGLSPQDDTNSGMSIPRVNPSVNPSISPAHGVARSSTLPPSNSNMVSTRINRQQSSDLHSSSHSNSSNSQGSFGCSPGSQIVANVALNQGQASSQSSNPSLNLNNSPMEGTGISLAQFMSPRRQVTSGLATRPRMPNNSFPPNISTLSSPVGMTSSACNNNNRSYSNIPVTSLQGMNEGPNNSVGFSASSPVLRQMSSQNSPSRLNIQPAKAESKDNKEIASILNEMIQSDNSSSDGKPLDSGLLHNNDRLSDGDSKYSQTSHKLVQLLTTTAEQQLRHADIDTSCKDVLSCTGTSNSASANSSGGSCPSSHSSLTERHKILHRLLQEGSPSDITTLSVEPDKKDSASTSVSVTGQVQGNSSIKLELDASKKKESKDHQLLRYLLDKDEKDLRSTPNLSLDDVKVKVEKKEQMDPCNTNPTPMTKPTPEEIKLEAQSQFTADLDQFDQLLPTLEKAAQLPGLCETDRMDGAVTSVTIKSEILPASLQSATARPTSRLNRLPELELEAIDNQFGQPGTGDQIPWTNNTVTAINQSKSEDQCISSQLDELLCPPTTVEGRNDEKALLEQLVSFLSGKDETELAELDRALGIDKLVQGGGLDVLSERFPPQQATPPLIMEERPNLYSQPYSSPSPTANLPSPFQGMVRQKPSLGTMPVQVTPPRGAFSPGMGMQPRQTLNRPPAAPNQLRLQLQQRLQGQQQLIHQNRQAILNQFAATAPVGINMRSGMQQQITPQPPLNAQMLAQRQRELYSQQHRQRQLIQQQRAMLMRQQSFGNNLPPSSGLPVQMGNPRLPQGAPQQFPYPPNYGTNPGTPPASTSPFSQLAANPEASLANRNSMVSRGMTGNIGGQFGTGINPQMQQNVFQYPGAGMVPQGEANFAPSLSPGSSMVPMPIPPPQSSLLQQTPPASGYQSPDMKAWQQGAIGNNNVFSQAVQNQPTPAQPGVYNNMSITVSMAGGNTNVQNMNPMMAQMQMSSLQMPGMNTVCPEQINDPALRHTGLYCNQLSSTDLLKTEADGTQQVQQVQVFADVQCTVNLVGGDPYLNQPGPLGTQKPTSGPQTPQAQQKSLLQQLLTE
Experimental: (§1) Cells were grown on 24-well glass bottom plate (Cellvis, P24-1.5H-N) and images were taken with the Leica TCS SP8 confocal microscopy system using a 100× oil objective (NA=1.4). Cells were imaged on a heated stage(37° C.) and supplemented with warmed (37° C.) humidified air.
(§2) For compounds treatment assay, SF268 cells were co-transfected with YAP5SA, TEAD4-mTagBFP2 and mNeoGreen-SRC1. YAP variant YAP5SA which is insensitive to the upstream Hippo pathway, sequestered YAP in nucleus. To circumvent the limitations brought by red fluorescent proteins, TEAD condensates which have been reported to depend on YAP, were used to characterize YAP/TEAD transcriptional condensates. Six hours after transfection, SF268 cells were seeded on 24-well glass bottom plate (Cellvis, P24-1.5H-N) and compounds were added two hours later. Cells were imaged every 30 mins after EVG or other compounds were added.
(§3) Cells were grown on 24-well glass bottom plate (Cellvis, P24-1.5H-N) and images were taken with the Leica TCS SP8 confocal microscopy system using a 100× oil objective (NA=1.4). Cells were imaged on a heated stage (37° C.) and supplemented with warmed (37° C.) humidified air. […]
(§4) Data was analyzed by images collected from 100 representative fields in each group. The spots quantification was performed based on the number and intensity of the spots through green (mNeoGreen-SRC1) and blue (TEAD4-mTagBFP2) channel. […]

YAP/TEAD4 condensates = experiment: Live cell imaging of YAP/TEAD condensates; type: cell-based; conditions: H1299 cells co-transfected with YAP5SA, TEAD4-mTagBFP, mNeoGreen-SRC1; 20 μM
Experimental: as §1, §2, §3, §4

## COc1cc2c(cc1Cc1cccc(Cl)c1F)c(=O)c(C(=O)O)cn2[C@H](CO)C(C)C [EVG, 6-[(3-chloro-2-fluorophenyl)methyl]-1-[(2S)-1-hydroxy-3-methylbutan-2-yl]-7-methoxy-4-oxoquinoline-3-carboxylic acid]
YAP [1]
  phosphorylation pattern in YAP: unaffected
SRC-1
  binding to SRC-1, competition pulldown and thermal shift: both direct and specific
YAP [2]
  YAP nuclear translocation: remained in nucleus; also recorded: unaffected
Lung cancer cell lines
  proliferation of lung cancer cell lines: effectively inhibited
SRC-1 condensates; H1299 cells co-transfected with YAP5SA, TEAD4-mTagBFP, mNeoGreen-SRC1, 20 μM
  SRC-1 condensates / SRC1 phase separation (LLPS): impaired; also recorded: selectively disrupted
SRC-1 condensates; H1299 cells expressing either mNeoGreen or mScarlet labeled SRC-1, time course
  nuclear SRC-1 puncta formation: impaired the LLPS of SRC-1 in time-dependent manner; also recorded: suppressed
YAP/TEAD4 condensates
  YAP/TEAD condensates: remained intact; also recorded: but not the YAP/TEAD4 condensates
